One data set concerns leukemic cells. To be noted: Tidwell et al., Blood, 57, 794 (1981); cited from earlier work.
Data set [1] has as its system carageenin-induced edema (rat paw swelling). Put plainly: Carageenin-induced edema (acute inflammation) model, rat paw swelling. It counts as in vivo. To be noted: 25 mg/kg oral, at 4 hours, group of 5 rats. The source says:
It is well known that free arachidonic acid may be processed into potent inflammatory mediators such as the leukotrienes, prostaglandins, thromboxane A2 and prostacyclin. Inhibition of the release of arachidonic acid could result in a lowered inflammatory response.

In data set [2] the test system is release of arachidonic acid from membrane phospholipids (rabbit neutrophils). Nature of the data set: Inhibition of release of arachidonic acid from membrane phospholipids in glycogen-elicited rabbit neutrophils. The settings on record: A-23187 0.5 mcg/ml activation, 5 minutes pretreatment at 37° C. The data set is classed as cell-based. On the procedure:
In this procedure, glycogen-elicited rabbit neutrophils are labelled with ^14 C-arachidonic acid by incubation for one hour at 37° C. and followed by treatment with the compound under test at 37° C. for 5 minutes. The cells were then activated by addition of 0.5 mcg/ml of A-23187 (an ionophore) for 5 minutes. Cellular metabolism was stopped; the membrane lipids extracted; and the extracted lipids chromatographed on TLC plates. Assays were conducted for free ^14 C-arachidonic acid and hydroxy^14 C-eicosatetraenoic acid (HETES) using a radiochromatogram scanner.

Data set [3] concerns spontaneously hypertensive rats (SHR). Put plainly: Blood pressure and heart rate in spontaneously hypertensive rats, femoral artery cannula. It counts as in vivo, rat. The settings on record: for Blood pressure: femoral artery cannula. The source says: (§1) The above compounds are also active in lowering the blood pressure of spontaneously hypertensive rats (SHR). […] In the table, column 1 gives the compound used, column 2 the dose level, column 3, the route of administration, column 4, number of rats, column 5, the time of blood pressure measurement, column 6, blood pressure in mm (Hg), and column 7, heart rate.
**B.P. measured by femoral artery cannula.

Data set [4] deals with X-5563 plasma cell myeloma. Nature of the data set: Antitumor activity vs X-5563 plasma cell myeloma in mice. It counts as in vivo. The settings on record: daily for 10 days after inoculation. The source says: Compounds according to formula II above are also active against transplanted tumors in mice. Table II which follows gives the results of testing (d,1)-2-ethoxy-1-[(2-trimethylaminoethoxy)phosphinyloxy]-eicosane,hydroxy inner salt, (A), against several such tumors. In the table, column 1 gives the name of the tumor, column 2 the dosage levels, column 3 toxic deaths, column 4, the percent tumor growth inhibition and column 5, the dosage schedule or regimen. Ten mice were given each dosage I.P. and a group of 20 mice used as controls.
Table III gives the results obtained by comparing the activity of the racemate (d,1)-2-ethoxy-1-[(2-trimethylaminoethoxy)phosphinyloxy]eicosane,hydroxy inner salt (A), the L-(-)enantiomer (B) and the D-(+)enantiomer (C) versus X-5563, a plasma cell myeloma.

The subject of data set [5] is spontaneously hypertensive rats (SHR). Nature of the data set: Blood pressure and heart rate in spontaneously hypertensive rats, tail cuff method. The data set is classed as in vivo, rat. The settings on record: administered subcutaneously, various dose levels.
From the text: as §1
*B.P. measured by tail cuff method.

[6] abbreviates: 3 mg/kg I.V., 0 hours (baseline).
Setting [7] is: 10 mg/kg I.V., 0 hours (baseline).

Data on 4 compounds can be found in US4659859A, “2-alkoxy-1-alkoxy phosphoryl dichlorides” (priority 1986, dated 1987).

Where a name gives a salt, the structure may show the parent alone.

On to `CCCCCCCCCCCCCCCCCCOCC(COP(=O)([O-])OCC[N+](C)(C)C)OC` (stereo not drawn), for which the “inhibits the proliferation of leukemic cells” value with leukemic cells is recorded as “inhibits the proliferation of leukemic cells”.

In the case of `CCCCCCCCCCCCCCCCCCC(COP(=O)([O-])OCC[N+](C)(C)C)OC` (racemic) [Compound 7, (d,l)-2-Methoxy-1-[(2-trimethylaminoethoxy)phosphinyloxy]eicosane, hydroxy inner salt], the “inhibition of rat paw swelling” value in data set [1] is 68%. In data set [2], the “inhibition of the release of arachidonic acid (AA) from phospholipids” value came to 88%; the “inhibition of the total production of free AA and HETES” value turned out to be 100%.

Consider `CCCCCCCCCCCCCCCCCC[C@@H](COP(=O)([O-])OCC[N+](C)(C)C)OCC` [Compound 1, D-2-Ethoxy-1-[(2-trimethylaminoethoxy)phosphinyloxy]eicosane, hydroxy inner salt], for which the Heart Rate in data set [3] (setting [6]) was 326 beats/min; in data set [3] (3 mg/kg I.V., 1.0 hours), 376 beats/min; in data set [3] (3 mg/kg I.V., .08 hours), 373 beats/min; in data set [3] (3 mg/kg I.V., .25 hours) it was 400 beats/min; in data set [3] (3 mg/kg I.V., .5 hours), 346 beats/min; in data set [3] (setting [7]), 345 beats/min. Further, the Heart Rate in data set [3] (10 mg/kg I.V., 1.0 hours) came to 355 beats/min; in data set [3] (10 mg/kg I.V., .08 hours), 360 beats/min; in data set [3] (10 mg/kg I.V., .25 hours) it was 360 beats/min; in data set [3] (10 mg/kg I.V., .5 hours), 345 beats/min. In addition, the Blood pressure in data set [3] (setting [6]) amounted to 197 mm Hg; in data set [3] (3 mg/kg I.V., 1.0 hours) it was 194 mm Hg; in data set [3] (3 mg/kg I.V., .08 hours), 197 mm Hg; in data set [3] (3 mg/kg I.V., .25 hours), 200 mm Hg; in data set [3] (3 mg/kg I.V., .5 hours) it was 188 mm Hg; in data set [3] (setting [7]) it was 183 mm Hg. Moreover, the Blood pressure in data set [3] (10 mg/kg I.V., 1.0 hours) is given as 178 mm Hg; in data set [3] (10 mg/kg I.V., .08 hours), 185 mm Hg; in data set [3] (10 mg/kg I.V., .25 hours) it was 184 mm Hg; in data set [3] (10 mg/kg I.V., .5 hours) it was 177 mm Hg. For the same compound, the “Percent inhibition of Tumor growth” value is on record as 76% in data set [4] (17 mg/kg), 95% in data set [4] (25 mg/kg), “Toxic” in data set [4] (35 mg/kg) and “Toxic” in data set [4] (50 mg/kg). Further, the Toxic deaths is recorded as 2/10 in data set [4] (17 mg/kg), 1/10 in data set [4] (25 mg/kg), 5/10 in data set [4] (35 mg/kg) and 10/10 in data set [4] (50 mg/kg).

Turning to `CCCCCCCCCCCCCCCCCC[C@H](COP(=O)([O-])OCC[N+](C)(C)C)OCC` [Compound 2, L-2-Ethoxy-1-[(2-trimethylaminoethoxy)phosphinyloxy]eicosane, hydroxy inner salt], the “hypotensive effects in SHR (in words)” value in data set [5] is on record as “hypotensive effects”. The Heart Rate in data set [3] (setting [6]) came out at 340 beats/min; in data set [3] (3 mg/kg I.V., 1.0 hours) it was 380 beats/min; in data set [3] (3 mg/kg I.V., .08 hours), 385 beats/min; in data set [3] (3 mg/kg I.V., .25 hours), 367 beats/min; in data set [3] (3 mg/kg I.V., .5 hours), 370 beats/min. The Blood pressure in data set [3] (setting [6]) was 177 mm Hg; in data set [3] (3 mg/kg I.V., 1.0 hours) it was 162 mm Hg; in data set [3] (3 mg/kg I.V., .08 hours) it was 107 mm Hg; in data set [3] (3 mg/kg I.V., .25 hours), 144 mm Hg; in data set [3] (3 mg/kg I.V., .5 hours) it was 162 mm Hg. In addition, the “Percent inhibition of Tumor growth” value in data set [4] (2.5 mg/kg) was 18%; in data set [4] (5 mg/kg), 44%; in data set [4] (10 mg/kg), 53%; in data set [4] (20 mg/kg), 67%. In addition, the Toxic deaths was 1/10 in data set [4] (2.5 mg/kg), 1/10 in data set [4] (5 mg/kg), 0/10 in data set [4] (10 mg/kg) and 0/10 in data set [4] (20 mg/kg).
